Legend:
Assay type in all cases: cell-based
[1] = tested on: Human Dermal Fibroblasts (HDF); experiment: BrdU cell proliferation assay; conditions: HDF incubated 24 h with 5, 0.5 or 0.05 μg/ml synthetic peptide; percentage of untreated control
Protocol: BrDu is incorporated into newly synthesised DNA strands of actively proliferating cells. Following partial denaturation of double stranded DNA, Brdu is detected immunochemically allowing the assessment of the population of cells which are synthesizing DNA.
Human Dermal Fibroblasts (HDF—Sigma 10605a) were seeded in a 96 well plate at 10,000 cells per well in DMEM containing 10% fetal calf serum (FCS), 1% Pen/strep, 1% L-glutamine and allowed to adhere for 24 h.
Following the initial 24 h incubation the cells were incubated with 5 μg/ml, 0.5 μg/ml or 0.05 μg/ml synthetic peptide for 24 h respectively.
After 18 h incubation with synthetic peptides 20 μl BrDu reagent was added to each well.
At 24 h incubation the cell were fixed and the amount of […] was measured using the BrdU Cell Proliferation Assay, all steps were carried out according to the manufacturer's instructions.
Results were calculated as a percentage of the untreated control. An increase in optical density reading indicates greatER incorporation of BrDu and increase cell proliferation.

[2] = tested on: elastic fibers of the dermis, human skin tissue explants; experiment: Morphometric quantification of elastic fibers (elastin expression) in skin explants; conditions: for Morphometric quantification of elastic fibers in the middle dermis (%) / Morphometric quantification of elastic fibers in the superficial dermis (%): test items applied twice per day, 5 μL per explant, peptides 20 μM (Peptide 8 10 μM), compositions 500 μg/mL, EGF 10 ng/mL
Protocol: (§1) Skin explants were prepared from abdominal plastic surgery. Some explants were delipidated with alcohol to obtain a dehydrated skin.
(§2) These explants were maintained in maintenance medium supplied by the provider Bioprédic International for 5 days. Test items are applied twice per day with 5 μL per explant.
For each time of analysis (D1 and D5), histologies on delipidated explants, treated explants with test items, the DMSO 0.3% control and water control, are performed.
(§3) After receipt in the laboratory, each skin explant in the maintenance medium is delipidated with 5 μL alcohol during 3 hours.
(§4) After 3 hours, all skin explants are treated two per day with test items, and they are incubated at 37° C.+/−2° C., 5% CO2 for 1 day or 5 days. Integrity of the system is realized at day 1 and day 5 with a viability control with MTT.
Histology is realized by the laboratory Gredeco and the immunostaining to elastin and Ki67 are realized by the same laboratory. Immunostaining to filaggrin is realized by the laboratory Intertek.
The immunohistochemical staining intensity in the elastic fibers is evaluated using a semi-quantitative histological score.
The percentage area taken up by elastic fibers in the dermis was calculated in the dermis and the average superficial dermis.

[3] = tested on: keratinocytes of the basal layer of the epidermis, human skin tissue explants; experiment: Ki67 immunohistochemistry (mitotic index) in skin explants; conditions: for % of Ki67 positive cells in the basal layer of the epidermis: peptides 20 μM (Peptide 8 10 μM), compositions 500 μg/mL, EGF 10 ng/mL; for number of mitotic cells compared to EGF at day 1: day 1, compared to EGF
Protocol: as §1, §2, §3, §4
Epithelial proliferation was analyzed by immunohistochemistry using anti-Ki67 antibody.
Counting the number of labeled cells (keratinocytes of the basal layer of the epidermis) is performed and provides the total number of basal cells to calculate the % of labeled cells.
The results of the immunohistochemical analysis of Ki67 are reported in Table 4 and expressed as % of labelled at the basal layer of the epidermis. […] Immunohistochemical analysis of mitotic activity is shown in annex 4 with a reminder of the average for each analysed conditions.

470 (PHMP) [compound 470]
INCREASE IN PROLIFERATION [1]: 119%

471 (PHMPS) [compound 471]
INCREASE IN PROLIFERATION [1]: 38%

472 (PRRF) [compound 472]
INCREASE IN PROLIFERATION [1]: 77%

473 (WMKA) [compound 473]
INCREASE IN PROLIFERATION [1]: 41%

474 (DSINALEPDHR) [compound 474]
INCREASE IN PROLIFERATION [1]: 121%

477 (IFEDAITIPGR) [compound 477]
INCREASE IN PROLIFERATION [1]: 81%

478 (LDALEPDNRIESE) [compound 478]
INCREASE IN PROLIFERATION [1]: 76%

479 (KTLDYWPSLR) [compound 479]
INCREASE IN PROLIFERATION [1]: 106%

480 (RHGEWGPSY) [compound 480]
INCREASE IN PROLIFERATION [1]: 102%

482 (ILVDGSHDIER) [compound 482]
INCREASE IN PROLIFERATION [1]: 113%

495 (HPMS) [compound 495]
INCREASE IN PROLIFERATION [1]: 68%

497 (MPMP) [compound 497]
INCREASE IN PROLIFERATION [1]: 58%

499 (PNSM) [compound 499]
INCREASE IN PROLIFERATION [1]: 113%

500 (WDPA) [compound 500]
INCREASE IN PROLIFERATION [1]: 6%

501 (LRGFSK) [compound 501]
INCREASE IN PROLIFERATION [1]: 43%

502 (RSQNIF) [compound 502]
INCREASE IN PROLIFERATION [1]: 68%

503 (YLRGFS) [compound 503]
INCREASE IN PROLIFERATION [1]: 125%

504 (GALMLPHYN) [compound 504]
INCREASE IN PROLIFERATION [1]: 119%

505 (GALMLPHYNSR) [compound 505]
INCREASE IN PROLIFERATION [1]: 118%

HGPVEMPYTLLYPSSK [0723.01]
Morphometric quantification of elastic fibers in the middle dermis (%) ([2]; D 1): 7.59% | Morphometric quantification of elastic fibers in the superficial dermis (%) ([2]; D 1): 4.45% | elastic fibers in the middle dermis compared to the water control at D5 [2]: an increase | Morphometric quantification of elastic fibers in the middle dermis (%) ([2]; D 5): 10.17% | Morphometric quantification of elastic fibers in the superficial dermis (%) ([2]; D 5): 10.21% | elastic fibers in the superficial dermis compared to control water [2]: increase by twice | % of Ki67 positive cells in the basal layer of the epidermis ([3]; D 1): 18.57% | % of Ki67 positive cells in the basal layer of the epidermis ([3]; D 5): 3.92%

LDALEPDNR [0723.03]
Morphometric quantification of elastic fibers in the middle dermis (%) ([2]; D 1): 4.9% | Morphometric quantification of elastic fibers in the superficial dermis (%) ([2]; D 1): 3% | elastic fibers in the middle dermis compared to the water control at D5 [2]: an increase | Morphometric quantification of elastic fibers in the middle dermis (%) ([2]; D 5): 9% | Morphometric quantification of elastic fibers in the superficial dermis (%) ([2]; D 5): 11.68% | elastic fibers in the superficial dermis compared to control water [2]: increase by twice | % of Ki67 positive cells in the basal layer of the epidermis ([3]; D 1): 22.01% | % of Ki67 positive cells in the basal layer of the epidermis ([3]; D 5): 10.04%

QQYGIAASPFLQSAA [0723.07]
Morphometric quantification of elastic fibers in the middle dermis (%) ([2]; D 1): 6.46% | Morphometric quantification of elastic fibers in the superficial dermis (%) ([2]; D 1): 4% | Morphometric quantification of elastic fibers in the middle dermis (%) ([2]; D 5): 5.33% | Morphometric quantification of elastic fibers in the superficial dermis (%) ([2]; D 5): 5.15% | % of Ki67 positive cells in the basal layer of the epidermis ([3]; D 1): 22.22% | % of Ki67 positive cells in the basal layer of the epidermis ([3]; D 5): 5.26%

RLQSQNDQRGEIIHVK [0723.02]
Morphometric quantification of elastic fibers in the superficial dermis (%) ([2]; D 1): 6.09% | elastic fibers in the middle dermis compared to the water control at D5 [2]: an increase | Morphometric quantification of elastic fibers in the middle dermis (%) ([2]; D 5): 9.08% | Morphometric quantification of elastic fibers in the superficial dermis (%) ([2]; D 5): 7.59% | elastic fibers in the middle dermis at day 1 compared to control water ([2]; day 1, compared to control water): increase doubled | % of Ki67 positive cells in the basal layer of the epidermis ([3]; D 1): 19.61% | % of Ki67 positive cells in the basal layer of the epidermis ([3]; D 5): 6.73%

RPYYSNAPQEIF [0723.04]
Morphometric quantification of elastic fibers in the middle dermis (%) ([2]; D 1): 5.22% | Morphometric quantification of elastic fibers in the superficial dermis (%) ([2]; D 1): 3.28% | Morphometric quantification of elastic fibers in the middle dermis (%) ([2]; D 5): 9% | Morphometric quantification of elastic fibers in the superficial dermis (%) ([2]; D 5): 8.94% | % of Ki67 positive cells in the basal layer of the epidermis ([3]; D 1): 14.97% | % of Ki67 positive cells in the basal layer of the epidermis ([3]; D 5): 11.36%

SKPHTIFLPQHTDADYILVVLSGK [0723.08]
Morphometric quantification of elastic fibers in the middle dermis (%) ([2]; D 1): 3.52% | Morphometric quantification of elastic fibers in the superficial dermis (%) ([2]; D 1): 2.7% | Morphometric quantification of elastic fibers in the middle dermis (%) ([2]; D 5): 7.27% | Morphometric quantification of elastic fibers in the superficial dermis (%) ([2]; D 5): 5.32% | % of Ki67 positive cells in the basal layer of the epidermis ([3]; D 1): 27.83% | % of Ki67 positive cells in the basal layer of the epidermis ([3]; D 5): 5.72% | number of mitotic cells compared to EGF at day 1 [3]: an increase

TVFDGVLRPGQL [0723.06]
Morphometric quantification of elastic fibers in the middle dermis (%) ([2]; D 1): 4.54% | Morphometric quantification of elastic fibers in the superficial dermis (%) ([2]; D 1): 3.8% | Morphometric quantification of elastic fibers in the middle dermis (%) ([2]; D 5): 8.67% | Morphometric quantification of elastic fibers in the superficial dermis (%) ([2]; D 5): 4.03% | % of Ki67 positive cells in the basal layer of the epidermis ([3]; D 1): 31.97% | % of Ki67 positive cells in the basal layer of the epidermis ([3]; D 5): 5.04% | number of mitotic cells compared to EGF at day 1 [3]: an increase

VLLEQQEQEPQH [0723.05]
Morphometric quantification of elastic fibers in the middle dermis (%) ([2]; D 1): 8.8% | Morphometric quantification of elastic fibers in the superficial dermis (%) ([2]; D 1): 6.34% | Morphometric quantification of elastic fibers in the middle dermis (%) ([2]; D 5): 6.61% | Morphometric quantification of elastic fibers in the superficial dermis (%) ([2]; D 5): 6.26% | % of Ki67 positive cells in the basal layer of the epidermis ([3]; D 1): 9.48% | % of Ki67 positive cells in the basal layer of the epidermis ([3]; D 5): 3.08%
